Test results from patent US7763751B2 (priority 2003, dated 2010).
Like-named read-outs stand apart in the source and are kept apart here.

What was measured:
β-Amyloid1-42 = biological target: T1, β-Amyloid1-42 (Homo sapiens, UniProt P05067); experiment: Inhibition of Aβ 1-42 spontaneous aggregation (HPLC assay); format: biochemical; conditions: for IC50: concentration able to inhibit the aggregation of the fibrils by 50%, peptide 20 μM, pH 7.4, 18 h at 37° C., read-out: β-Amyloid1-42 Anti-aggregation (HPLC assay) IC50; for potency in inhibiting the aggregation of Aβ1-42 as compared to compound (3): comparison with known compound (3); for anti-aggregating properties against Aβ1-42: in words
T1 construct: Synthetic Aβ 1-42 (U.S. Peptide, Rancho Cucamonga, USA); purchased U.S. Peptide, Rancho Cucamonga, USA; host or cells: chemical synthesis
Experimental: (§1) In our experimental conditions, the peptide monomer (anti-aggregation protocol) or already aggregated (disaggregation protocol) was incubated at 37° C., alone or in the presence of the test compound, for different time intervals, then centrifuged and both the supernatant and the pellet were analyzed by HPLC or Thioflavine T binding assay.
Inhibition of Aβ 1-42 Spontaneous Aggregation
Preparation of the Aβ 1-42 peptide
Synthetic Aβ 1-42 (U.S. Peptide, Rancho Cucamonga, USA) was dissolved to 220 μM in H2O/CH3CN 1:1. Aliquots of 10 μg were lyophilized under vacuum with an Eppendorf concentrator for 18 h and stored at −80° C.
Aβ 1-42 spontaneous aggregation
10 μg of lyophilized peptide sample was dissolved at 20 μM in 20 mM potassium phosphate buffer, pH 7.4, containing 150 mM NaCl. The sample was incubated for 18 h at 37° C. After centrifugation at 13000 xg for 5 min, the pellet was dissolved in formic acid and both the pellet and the supernatant were analysed by HPLC. The extent of aggregation was determined as the percentage of peptide content in the pellet compared with the total amount.

α-synuclein = biological target: T2, α-synuclein (Homo sapiens, UniProt P37840); experiment: Inhibition of NAC (α-synuclein) spontaneous aggregation (HPLC assay); format: biochemical; conditions: for potency in inhibiting the aggregation of α-synuclein as compared to compound (3): comparison with known compound (3); for anti-aggregating properties against α-synuclein: in words
T2 construct: The synthetic peptide NAC (Bachem) was dissolved at 1 mg/ml; purchased Bachem; host or cells: chemical synthesis
Experimental: as §1
Inhibition of Non Aβ Component of Alzheimer's Disease Amyloid (NAC, α-synuclein) Spontaneous Aggregation
Preparation of the NAC peptide
The synthetic peptide NAC (Bachem) was dissolved at 1 mg/ml in H2O/CH3CN 1:1 plus 5% TFA. Aliquots of 40 μg were lyophilized under vacuum for 18 h and stored at −80° C.
NAC spontaneous aggregation
40 μg of lyophilized peptide sample was dissolved at 500 μM in 20 mM potassium phosphate buffer, pH 7.4, containing 150 mM NaCl. The sample was incubated for 24 h at 37° C. After centrifugation at 13000 xg for 5 min, the pellet was dissolved in formic acid and both pellet and supernatant were analyzed by HPLC. The extent of aggregation was determined as the percentage of peptide content in the pellet compared to the total amount used.

T1 sequence (P05067 672-713 limits assumed): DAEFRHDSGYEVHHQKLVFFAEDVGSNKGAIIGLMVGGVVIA

Compound	IC50 (β-Amyloid1-42) [µM]	IC50 (α-synuclein; NAC peptide 500 μM, pH 7.4, 24 h at 37° C., read-out: α-synuclein Anti-aggregation (HPLC assay) IC50) [µM]	potency in inhibiting the aggregation of Aβ1-42 as compared to compound (3) (β-Amyloid1-42)	anti-aggregating properties against Aβ1-42 (β-Amyloid1-42)	IC50 (α-synuclein) [µM]	potency in inhibiting the aggregation of α-synuclein as compared to compound (3) (α-synuclein)	anti-aggregating properties against α-synuclein (α-synuclein)
CCCN(CCC)[C@@H]1Cc2c(O)ccc(O)c2C[C@H]1C (relative stereo) [Compound 3, trans-N-(5,8-hydroxy-3-methyl-1,2,3,4-tetrahydro-naphtalene-2yl)-N,N-dipropyl-amine, reference compound]	60	878					
CONC(C)Cc1ccc(O)c(O)c1 (centres unmarked) [Compound 1, N-(1-methyl-2-(3,4-dihydroxy-phenyl)-ethyl)-O-methyl-hydroxylamine]	15		more potent	significant anti-aggregating properties	222	more potent	significant anti-aggregating properties
CCCN(OCC)C1CCc2c(ccc(O)c2O)C1 (centres unmarked) [Compound 2, N-(5,6-dihydroxy-1,2,3,4-tetrahydro-naphthalene-2-yl)-N-propyl-O-ethyl-hydroxylamine]	6		significantly more potent	significant anti-aggregating properties	35	significantly more potent	significant anti-aggregating properties
